Each structure is given as a SMILES string. Where a name gives a salt, the structure may show the parent alone. Read-outs that look alike come from different tables or passages of the source.

The conditions of series [1]: cited from earlier work.
Series [2] in a line: physchem. As to conditions: water.

Regarding `COc1cccc(C2(O)CCCCC2CN(C)C)c1` (stereo not drawn) [tramadol hydrochloride], the “Volume of water to dissolve dose” value amounted to 1.3 mL and the “volume needed for total dissolution of the dose” value was “around 1 mL”. Besides, the solubility in water result in series [1] is reported as “around 30 mg/mL”. The solubility (commonly the concentration that dissolves in the medium under given conditions) in series [2] amounted to 30 mg/mL.

With `CC(=O)Nc1ccc(O)cc1` [paracetamol], the “volume needed for total dissolution of the dose” value (weight for weight basis, dose in the paracetamol/tramadol hydrochloride tablet) was “around 27 mL”.

Consider `CN1CCC[C@@H]1Cc1c[nH]c2ccc(CCS(=O)(=O)c3ccccc3)cc12` [Eletriptan hydrobromide], for which the “Volume of water to dissolve dose” value (dose as in the Dose (mg) column) was found to be 4 mL.

These data come from patent US20130065885A1, “ORAL THERAPEUTIC COMPOUND DELIVERY SYSTEM” (IMAGINOT PTY LTD., priority 2004, published 2013).
